In US10377741B2, “Substituted heteroaryl aldehyde compounds and methods for their use in increasing tissue oxygenation” (Global Blood Therapeutics, Inc., priority 2011, dated 2019):

Key:
[1] = target: T1, purified Hemoglobin S (HbS) (Homo sapiens, UniProt P68871+P69905, E7V); test: Modulation of hemoglobin oxygen affinity: oxygen equilibrium curves (HEMOX) in purified HbS; type: biochemical, human (homozygous sickle cell patients); conditions: compound at 30 μM; 25 μM purified HbS, 45 min at 37° C.
T1 construct: HbS was purified by a modified procedure; from tissue; host or cells: blood of homozygous sickle cell patients (CHORI); for the polymerization assay purified by the CRO VIRUSYS
Method in brief: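 HbS from homozygous sickle cell patient blood, 25 μM in HEMOX buffer pH 7.4, incubated 45 min at 37° C with compound (30 μM unless noted). Air-saturated then deoxygenated with N2; p50 from Hill fit; delta p50% = (control p50 − treated p50)/control p50 × 100.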

[2] = target: T2, HbS/A (Homo sapiens, UniProt P68871+P69905, E7V); test: R/T assay (relaxed-to-tense transition under deoxygenated conditions); type: biochemical, human (homozygous sickle cell patients); conditions: 3 μM HbS/A, % R remaining vs no treatment
T2 construct: A mixture of HbS/A was purified from blood; from tissue; host or cells: blood of homozygous sickle cell patients (CHORI)
Experimental: A relaxed-to-tense transition assay (“R/T assay”) was used to determine the ability of substituted benzaldehyde compounds to maintain the high-oxygen affinity relaxed (R) state of hemoglobin under deoxygenated conditions. This ability can be expressed as a “delta R” value (i.e., the change in the time-period of the R state after hemoglobin is treated with a compound, as compared to the period without treatment with the compound). Delta R is the % R to remaining after the compounds treatment compared with no treatment (e.g. if R % without treatment is 8% while with treatment with a target compound is 48% R at 30 μM, then % R is 40% for that compound.
A mixture of HbS/A was purified from blood obtained from homozygous sickle cell patients though the Hemoglobinopathy Center at Children's Hospital Oakland Research Institute (CHORI) with Institutional Review Board approval. HbS/A (at a final concentration of 3 μM) was incubated for 1 hr at 37° C. in presence or absence of compounds in […] potassium phosphate buffer, pH=7.4 and 30 μM 2, 3 diphosphoglycerate (DPG) in 96 well plates in a final volume of 160 μl. Compounds were added at different concentrations (3 μM to 100 μM final concentrations). Plates were covered with a Mylar film. After incubation was completed the Mylar cover was removed and the plates were placed in a Spectrostar Nano plate reader previously heated at 37° C. Five minutes later, N2 (flow rate=20 L/min) was flowed through the spectrophotometer. Spectroscopic measurements (300 nm to 700 nm) were taken every 5 min for 2 hours. Data analysis was performed by using linear regression from the data retrieved for all wavelengths.
Table 4 below lists the delta R values where + indicates a delta R of between 0 and 30, ++ indicates a delta R of between 30 and 50, and +++ indicates a delta R of 50 or greater. Unless noted otherwise, the compounds in Table 2 were tested at 30 μM.

[3] = system: whole blood; test: Whole blood assay: oxygen equilibrium curves of whole blood; type: cell-based, human (homozygous sickle cell patients); conditions: compound at 1000 μM; hematocrit 20%, 1 hour at 37° C.
Experimental: Oxygen Equilibrium Curves (OEC) of whole blood before and after treatment with different concentrations of substituted benzaldehyde compounds were performed as follows using a HEMOX analyzer (TCS Scientific, New Hope, Pa.). Blood samples from homozygous sickle cell patients were obtained though the Hemoglobinopathy Center at Children's Hospital Oakland Research Institute (CHORI) with Institutional Review Board approval. The hematocrit was adjusted to 20% using autologous plasma and the blood samples were incubated for 1 hour at 37° C. in absence or presence of compounds. 100 μl of these samples were added to 5 mL of Hemox buffer (30 mM TES, 130 mM NaCl, 5 mM KCl, pH=7.4) at 37° C. and then transferred to the Hemox sample chamber. The samples were saturated with oxygen by flushing with compressed air for 10 minutes. The samples were then flushed with pure nitrogen and the respective absorbances of oxy- and deoxy-Hb are recorded as a function of the solution pO2. The oxygen equilibrium data were then fitted to the Hill Model to obtain values for p50. The deoxygenation curves for both whole blood alone (control) and whole blood in the presence of the compound were collected with the TCS software.
Table 5 below lists the delta p50% values where + indicates a delta p50% of between 0 and 29, ++ indicates a delta p50% of between 30 and 50, and +++ indicates a delta p50% of 50 or greater. Unless noted otherwise, the compounds in Table 2 were tested at 1000 μM.

Structure (SMILES)	delta p50% [1]	delta R ([2]; compound at 9 μM)	delta p50% Values for Whole Blood Assay [3]	delta R ([2]; compound at 30 μM)
COc1cc(C=O)c(OCc2cccc3ncccc23)cn1 [Compound 120, 2-methoxy-5-(quinolin-5-ylmethoxy)isonicotinaldehyde]	++ (a delta p50% of between 30 and 50)	++ (a delta R of between 30 and 50)	+ (a delta p50% of between 0 and 29)	
COc1cc(C=O)c(OCc2cccnc2-c2ccnn2C)cn1 [Compound 129, 2-methoxy-5-((2-(1-methyl-1H-pyrazol-5-yl)pyridin-3-yl)methoxy)isonicotinaldehyde]	++ (a delta p50% of between 30 and 50)	++ (a delta R of between 30 and 50)	++ (a delta p50% of between 30 and 50)	
COc1cc(C=O)c(OCc2cccnc2-c2nn[nH]n2)cn1 [Compound 131, 5-((2-(2H-tetrazol-5-yl)pyridin-3-yl)methoxy)-2-methoxyisonicotinaldehyde]	++ (a delta p50% of between 30 and 50)	+ (a delta R of between 0 and 30)	+ (a delta p50% of between 0 and 29)	
COc1cc(C=O)c(OCc2cccnc2-c2[nH]ncc2C)cn1 [Compound 132, 2-methoxy-5-((2-(4-methyl-1H-pyrazol-5-yl)pyridin-3-yl)methoxy)isonicotinaldehyde]	+++ (a delta p50% of 50 or greater)		++ (a delta p50% of between 30 and 50)	++ (a delta R of between 30 and 50)
COc1cc(C=O)c(OCc2c(-c3ccn[nH]3)ncc3ccccc23)cn1 [Compound 133, 5-((3-(1H-pyrazol-5-yl)isoquinolin-4-yl)methoxy)-2-methoxyisonicotinaldehyde]	++ (a delta p50% of between 30 and 50)	++ (a delta R of between 30 and 50)	+ (a delta p50% of between 0 and 29)	
COc1cc(C=O)c(OCc2cccn3cncc23)cn1 [Compound 140, 5-(imidazo[1,5-a]pyridin-8-ylmethoxy)-2-methoxyisonicotinaldehyde]	++ (a delta p50% of between 30 and 50)	+ (a delta R of between 0 and 30)	+ (a delta p50% of between 0 and 29)	
COc1cc(C=O)c(OCc2cccnc2-c2cnn(C)c2C)cn1 [Compound 143, 5-((2-(1,5-dimethyl-1H-pyrazol-4-yl)pyridin-3-yl)methoxy)-2-methoxyisonicotinaldehyde]	++ (a delta p50% of between 30 and 50)	+ (a delta R of between 0 and 30)	+ (a delta p50% of between 0 and 29)	
COCCOc1cc(C=O)c(OCc2cccn3ccnc23)cn1 [Compound 179, 5-(imidazo[1,2-a]pyridin-8-ylmethoxy)-2-(2-methoxyethoxy) isonicotinaldehyde]	++ (a delta p50% of between 30 and 50)	+ (a delta R of between 0 and 30)	++ (a delta p50% of between 30 and 50)	
COc1cc(C=O)c(OCc2cccnc2C(C)(C)O)cn1 [Compound 183, 5-((2-(2-hydroxypropan-2-yl)pyridin-3-yl)methoxy)-2-methoxyisonicotinaldehyde]	+++ (a delta p50% of 50 or greater)		+++ (a delta p50% of 50 or greater)	++ (a delta R of between 30 and 50)
COCCOc1cc(C=O)c(OCc2cccnc2-c2ccnn2C)cn1 [Compound 184, 2-(2-methoxyethoxy)-5-((2-(1-methyl-1H-pyrazol-5-yl)pyridin-3-yl)methoxy)isonicotinaldehyde]	++ (a delta p50% of between 30 and 50)		+++ (a delta p50% of 50 or greater)	++ (a delta R of between 30 and 50)
COc1cc(C=O)c(OCc2cccnc2-c2ccnn2CCO)cn1 [Compound 191, 5-((2-(1-(2-hydroxyethyl)-1H-pyrazol-5-yl)pyridin-3-yl)methoxy)-2-methoxyisonicotinaldehyde]	+++ (a delta p50% of 50 or greater)	+ (a delta R of between 0 and 30)	+++ (a delta p50% of 50 or greater)	
Cc1cn[nH]c1-c1ncccc1COc1c[nH]c(=O)cc1C=O [Compound 194, 5-((2-(4-methyl-1H-pyrazol-5-yl)pyridin-3-yl)methoxy)-2-oxo-1,2-dihydropyridine-4-carbaldehyde]	++ (a delta p50% of between 30 and 50)	+ (a delta R of between 0 and 30)	+ (a delta p50% of between 0 and 29)	
COc1cc(C=O)c(OCc2cccnc2-c2ccnn2C2CCCCC2)cn1 [Compound 196, 5-((2-(1-cyclohexyl-1H-pyrazol-5-yl)pyridin-3-yl)methoxy)-2-methoxyisonicotinaldehyde]	+++ (a delta p50% of 50 or greater)		++ (a delta p50% of between 30 and 50)	++ (a delta R of between 30 and 50)
COC(=O)CCn1nccc1-c1ncccc1COc1cnc(OC)cc1C=O [Compound 200, methyl 3-(5-(3-(((4-formyl-6-methoxypyridin-3-yl)oxy)methyl)pyridin-2-yl)-1H-pyrazol-1-yl)propanoate]	++ (a delta p50% of between 30 and 50)	+ (a delta R of between 0 and 30)	+++ (a delta p50% of 50 or greater)	
COc1cc(C=O)c(OCc2cccnc2-c2ccn(CCC(=O)O)n2)cn1 [Compound 201, 3-(3-(3-((4-formyl-6-methoxypyridin-3-yloxy)methyl)pyridin-2-yl)-1H-pyrazol-1-yl)propanoic acid]	++ (a delta p50% of between 30 and 50)	+ (a delta R of between 0 and 30)	+ (a delta p50% of between 0 and 29)	
